BigSolDB 2.1

With CC[C@@H](C(N)=O)N1CCCC1=O the solubility (mole fraction) (in 1,4-dioxane, 288.15 K) was 0.00718, the solubility (mole fraction) (in 1,4-dioxane, 293.15 K) was 0.00902 and the solubility (mole fraction) (in 1,4-dioxane, 298.15 K) was 0.0112. It also gave a solubility (mole fraction) (in 1,4-dioxane, 303.15 K) of 0.014, a solubility (mole fraction) (in 1,4-dioxane, 308.15 K) of 0.0173 and a solubility (mole fraction) (in 1,4-dioxane, 313.15 K) of 0.0214. It also gave a solubility (mole fraction) (in 1,4-dioxane, 318.15 K) of 0.0263, a solubility (mole fraction) (in 1,4-dioxane, 323.15 K) of 0.0322 and a solubility (mole fraction) (in acetone, 283.15 K) of 0.00698. It also gave a solubility (mole fraction) (in acetone, 288.15 K) of 0.00887, a solubility (mole fraction) (in acetone, 293.15 K) of 0.0111 and a solubility (mole fraction) (in acetone, 298.15 K) of 0.014. The solubility (mole fraction) (in acetone, 303.15 K) was 0.0175, the solubility (mole fraction) (in acetone, 308.15 K) was 0.0217 and the solubility (mole fraction) (in acetone, 313.15 K) was 0.0268. For the same molecule, the solubility (mole fraction) (in acetone, 318.15 K) was 0.033, the solubility (mole fraction) (in acetone, 323.15 K) was 0.0405 and the solubility (mole fraction) (in acetonitrile, 283.15 K) was 0.00909. It also gave a solubility (mole fraction) (in acetonitrile, 288.15 K) of 0.0113, a solubility (mole fraction) (in acetonitrile, 293.15 K) of 0.0137 and a solubility (mole fraction) (in acetonitrile, 298.15 K) of 0.0168. It also gave a solubility (mole fraction) (in acetonitrile, 303.15 K) of 0.0203, a solubility (mole fraction) (in acetonitrile, 308.15 K) of 0.0245 and a solubility (mole fraction) (in acetonitrile, 313.15 K) of 0.0292. It also gave a solubility (mole fraction) (in acetonitrile, 318.15 K) of 0.035, a solubility (mole fraction) (in acetonitrile, 323.15 K) of 0.0416 and a solubility (mole fraction) (in cyclohexane, 283.15 K) of 1.37e-05. The solubility (mole fraction) (in cyclohexane, 288.15 K) was 1.92e-05, the solubility (mole fraction) (in cyclohexane, 293.15 K) was 2.61e-05 and the solubility (mole fraction) (in cyclohexane, 298.15 K) was 3.64e-05. The solubility (mole fraction) (in cyclohexane, 303.15 K) was 4.91e-05, the solubility (mole fraction) (in cyclohexane, 308.15 K) was 6.61e-05 and the solubility (mole fraction) (in cyclohexane, 313.15 K) was 8.95e-05. The solubility (mole fraction) (in cyclohexane, 318.15 K) was 0.00012, the solubility (mole fraction) (in cyclohexane, 323.15 K) was 0.00016 and the solubility (mole fraction) (in ethanol, 283.15 K) was 0.0384. The solubility (mole fraction) (in ethanol, 288.15 K) was 0.0459, the solubility (mole fraction) (in ethanol, 293.15 K) was 0.0546 and the solubility (mole fraction) (in ethanol, 298.15 K) was 0.0643. The solubility (mole fraction) (in ethanol, 303.15 K) was 0.0758, the solubility (mole fraction) (in ethanol, 308.15 K) was 0.0885 and the solubility (mole fraction) (in ethanol, 313.15 K) was 0.103. For the same molecule, the solubility (mole fraction) (in ethanol, 318.15 K) was 0.12, the solubility (mole fraction) (in ethanol, 323.15 K) was 0.138 and the solubility (mole fraction) (in ethyl acetate, 283.15 K) was 0.00424. For the same molecule, the solubility (mole fraction) (in ethyl acetate, 288.15 K) was 0.00539, the solubility (mole fraction) (in ethyl acetate, 293.15 K) was 0.00676 and the solubility (mole fraction) (in ethyl acetate, 298.15 K) was 0.00847. It also gave a solubility (mole fraction) (in ethyl acetate, 303.15 K) of 0.0104, a solubility (mole fraction) (in ethyl acetate, 308.15 K) of 0.0129 and a solubility (mole fraction) (in ethyl acetate, 313.15 K) of 0.0158. For the same molecule, the solubility (mole fraction) (in ethyl acetate, 318.15 K) was 0.0194, the solubility (mole fraction) (in ethyl acetate, 323.15 K) was 0.0236 and the solubility (mole fraction) (in isopropanol, 283.15 K) was 0.0115. For the same molecule, the solubility (mole fraction) (in isopropanol, 288.15 K) was 0.0147, the solubility (mole fraction) (in isopropanol, 293.15 K) was 0.0185 and the solubility (mole fraction) (in isopropanol, 298.15 K) was 0.0229. For the same molecule, the solubility (mole fraction) (in isopropanol, 303.15 K) was 0.0286, the solubility (mole fraction) (in isopropanol, 308.15 K) was 0.0354 and the solubility (mole fraction) (in isopropanol, 313.15 K) was 0.0435. The solubility (mole fraction) (in isopropanol, 318.15 K) was 0.0537, the solubility (mole fraction) (in isopropanol, 323.15 K) was 0.0663 and the solubility (mole fraction) (in methanol, 283.15 K) was 0.0814. It also gave a solubility (mole fraction) (in methanol, 288.15 K) of 0.0974, a solubility (mole fraction) (in methanol, 293.15 K) of 0.115 and a solubility (mole fraction) (in methanol, 298.15 K) of 0.136. It also gave a solubility (mole fraction) (in methanol, 303.15 K) of 0.158, a solubility (mole fraction) (in methanol, 308.15 K) of 0.182 and a solubility (mole fraction) (in methanol, 313.15 K) of 0.209. The solubility (mole fraction) (in methanol, 318.15 K) was 0.239, the solubility (mole fraction) (in methanol, 323.15 K) was 0.27 and the solubility (mole fraction) (in n-propanol, 283.15 K) was 0.0167. The solubility (mole fraction) (in n-propanol, 288.15 K) was 0.0207, the solubility (mole fraction) (in n-propanol, 293.15 K) was 0.0252 and the solubility (mole fraction) (in n-propanol, 298.15 K) was 0.0303. The solubility (mole fraction) (in n-propanol, 303.15 K) was 0.0362, the solubility (mole fraction) (in n-propanol, 308.15 K) was 0.0434 and the solubility (mole fraction) (in n-propanol, 313.15 K) was 0.052. The solubility (mole fraction) (in n-propanol, 318.15 K) was 0.0614, the solubility (mole fraction) (in n-propanol, 323.15 K) was 0.0729 and the solubility (mole fraction) (in toluene, 283.15 K) was 0.00122. It also gave a solubility (mole fraction) (in toluene, 288.15 K) of 0.00167, a solubility (mole fraction) (in toluene, 293.15 K) of 0.0022 and a solubility (mole fraction) (in toluene, 298.15 K) of 0.00299. It also gave a solubility (mole fraction) (in toluene, 303.15 K) of 0.00393, a solubility (mole fraction) (in toluene, 308.15 K) of 0.00524 and a solubility (mole fraction) (in toluene, 313.15 K) of 0.00699. The solubility (mole fraction) (in toluene, 318.15 K) was 0.00947 and the solubility (mole fraction) (in toluene, 323.15 K) was 0.0129.
